From paper PMC5136371, “Acetylcholinesterase and Cytotoxic Activity of Chemical Constituents of Clutia lanceolata Leaves and its Molecular Docking Study” (Natural Products and Bioprospecting, 2016)
Like-named read-outs stand apart in the source and are kept apart here.

Key:
human recombinant AChE = target: T1, human recombinant AChE (Homo sapiens, UniProt P22303); test: biochemical
T1 construct: purchased Sigma-Aldrich
Experimental: AChE stock solution was prepared by dissolving human recombinant AChE (EC: 3.1.1.7) lyophilized powder (Sigma-Aldrich) in 0.1 M phosphate buffer (pH = 8.0) containing Triton X-100 (0.1 %). […] Increasing concentrations of the tested inhibitor were added to the assay solution and pre-incubated for 5 min at 37 °C with the enzyme followed by the addition of the substrate. Initial rate assays were performed at 37 °C using a Jasco V-530 double beam Spectrophotometer. The absorbance value at 412 nm was recorded for 5 min and enzyme activity was calculated from the slope of the obtained linear trend. Assays were carried out with a blank containing all components except AChE to account for the non-enzymatic reaction. The reaction rates were compared and the percent inhibition due to the presence of tested inhibitors was calculated. […] Tacrine was used as a standard inhibitor.

[1] = test system: brine shrimp nauplii (Artemia salina); test: In vivo cytotoxicity, brine shrimp lethality bioassay; settings: 24 h incubation, 10-80 µg/mL, triplicate
Experimental: The in vivo cytotoxicity of compounds (1–4) isolated from the leaves of C. lanceolata was evaluated to brine shrimp nauplii using vincristine sulfate as standard (Fig. S1 †ESI). It is one of the most convenient methods to determine the cytotoxicity of any compound.
Brine shrimp lethality bioassay is commonly used in the bioassay for the bioactive compounds [44, 45]. The in vivo cytotoxicity assay was performed on brine shrimp nauplii (Artemia salina) in accordance with the Mayer method. The egg of brine shrimp were hatched in a tank filled with artificially prepared sea water (brine, 3.8 % NaCl) exposed to incandescent light. Air was supplied at the bottom of the tank with the help of air supplier fitted with tube to keep the shrimps in uniform motion. The assay was performed 24 h after hatching and no food supplement was given during the hatching and experimental periods. A test sample (5.0 mg) was dissolved in 1 mL DMSO to obtain stock solution of 5 mg/mL. Different concentrations of test samples were obtained from stock solution and placed in separate vials, and the volume of each vial was made up to 5 mL with brine to obtain the desired final concentrations (10, 20, 40, 60 and 80 µg/mL). The negative control was prepared in the same manner without the samples. Vincristine sulphate was used as a standard anti-cancer drug. Thirty brine shrimp nauplii were then placed in each vial. After 24 h of incubation, the vials were observed using a magnifying glass, and the number of survivors in each vial were counted and noted. The LD50 values were calculated using the plot of percentage of mortality and logarithm of concentration. All tests were performed in triplicate and expressed as mean.

[2] = Solubility and air stability of the isolated crystals; assay type: physicochemical; settings: for solubility in organic solvents: all common organic solvents; for stability in air: once isolated

T1 sequence (P22303 32-614): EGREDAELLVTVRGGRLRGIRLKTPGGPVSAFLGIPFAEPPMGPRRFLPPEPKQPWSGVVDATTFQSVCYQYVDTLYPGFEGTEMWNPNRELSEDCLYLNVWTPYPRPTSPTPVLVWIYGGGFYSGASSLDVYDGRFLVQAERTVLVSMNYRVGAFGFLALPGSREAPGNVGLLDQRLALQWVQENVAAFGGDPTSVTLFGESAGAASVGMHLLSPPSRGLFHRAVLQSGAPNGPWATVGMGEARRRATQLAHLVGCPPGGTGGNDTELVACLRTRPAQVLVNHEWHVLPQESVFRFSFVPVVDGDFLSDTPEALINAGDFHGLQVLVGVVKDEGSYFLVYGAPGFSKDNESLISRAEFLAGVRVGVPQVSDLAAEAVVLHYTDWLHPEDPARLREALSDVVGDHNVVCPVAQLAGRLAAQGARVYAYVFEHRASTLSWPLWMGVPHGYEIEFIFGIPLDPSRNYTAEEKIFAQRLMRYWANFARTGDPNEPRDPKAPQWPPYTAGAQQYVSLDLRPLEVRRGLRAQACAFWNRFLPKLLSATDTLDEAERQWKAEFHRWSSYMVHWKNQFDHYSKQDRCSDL

| SMILES | LD50 value [1] [µg/mL] | IC50 (human recombinant AChE) [µM] | solubility in organic solvents [2] | stability in air [2] | solubility in water [2] | further results |
| --- | --- | --- | --- | --- | --- | --- |
| Cc1c(C(=O)O)ccc(O)c1O [Compound 1, 3,4-dihydroxy-2-methylbenzoic acid] | 23.40 ± 0.02 |  |  |  |  | IC50 (human recombinant AChE; human recombinant AChE, pH 8.0, 37 °C, substrate acetylthiocholine iodide 550 µM, triplicate, read-out: IC50 ± SEM for hAChE inhibition): 23.7 ± 0.02 µM; LD50 value ([1]; listed as compound 1): 23.40 µg/mL |
| Oc1ccc2ccccc2c1-c1c(O)ccc2ccccc12 [Compound 2, 2,2′-dihydroxy-1,1′-binaphthyl] | 17.78 ± 0.05 | 21.9 ± 0.05 | soluble in all common organic solvents | air-stable | insoluble in water | LD50 value ([1]; listed as compound 2): 17.78 µg/mL |
| Cc1cc(O)c2c(c1)C(=O)c1cc(O)cc(O)c1C2=O [Compound 3, 1,3,8-trihydroxy-6-methylanthracene-9,10-dione] | 13.80 ± 0.03 | 14.2 ± 0.06 |  |  |  | LD50 value ([1]; listed as compound 3): 13.80 µg/mL |
| COc1cc(/C=C/C(=O)/C=C(O)/C=C/c2ccc(O)c(OC)c2)ccc1O [Compound 4, 5-hydroxy-1,7-bis(4-hydroxy-3-methoxyphenyl)hepta-1,4,6-trien-3-one] | 11.66 ± 0.04 |  | soluble in all common organic solvents | air-stable | insoluble in water | LD50 value ([1]; listed as compound 4): 11.66 µg/mL |
| CC[C@]1(O)C[C@H]2CN(CCc3c([nH]c4ccccc34)[C@@](C(=O)OC)(c3cc4c(cc3OC)N(C=O)[C@H]3[C@@](O)(C(=O)OC)[C@H](OC(C)=O)[C@]5(CC)C=CCN6CC[C@]43[C@@H]65)C2)C1 [Vincristine sulphate, reference compound] | 8.84 ± 0.01 |  |  |  |  | LD50 value ([1]; listed as vincristine sulfate): 8.84 µg/mL |
